Reference: article PMC6979384, “Characterization of the plant homeodomain (PHD) reader family for their histone tail interactions” (Epigenetics & Chromatin, 2020)
Where no end group is shown, it is not given here.

How the values were obtained:
Experiment in all cases: Histone peptide microarray
Type in all cases: binding, human
KDM7A = conditions: KDM7A, GST-tagged; arrays performed twice, n of 4
Summary of the method: (§1)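 GST-tagged PHD readers, 0.5 μM, probed on a microarray of 293 synthetic histone peptides carrying single or combinatorial PTMs (optimized Petell protocol). Signals are averaged over 4 replicates and expressed as relative binding.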

KDM5B (3) = conditions: KDM5B (3), GST-tagged; arrays performed twice, n of 4
Summary of the method: as §1

KDM5A (1) = conditions: KDM5A (1), GST-tagged; arrays performed twice, n of 4
Summary of the method: as §1

CHD5 (PCC) = conditions: CHD5 (PCC), GST-tagged; arrays performed twice, n of 4
Summary of the method: as §1

DPF2 (PPC2W2) = conditions: DPF2 (PPC2W2), GST-tagged; arrays performed twice, n of 4
Summary of the method: as §1

MORC3 (CW) = conditions: MORC3 (CW), GST-tagged; arrays performed twice, n of 4
Summary of the method: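 Purified PHD finger domains fused to GST are screened against 293 synthetic histone peptides bearing one or several post-translational modifications. The protein is used at 0.5 μM, and the signal from four replicate arrays is averaged, with standard deviation given.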

RAG2 = conditions: RAG2, GST-tagged; arrays performed twice, n of 4
Summary of the method: as §1

PHF8 = conditions: PHF8, GST-tagged; arrays performed twice, n of 4
Summary of the method: as §1

TRIM66 (PB) = conditions: TRIM66 (PB), GST-tagged; arrays performed twice, n of 4
Summary of the method: as §1

KDM5B (1) = conditions: KDM5B (1), GST-tagged; arrays performed twice, n of 4
Summary of the method: as §1

TAF3 = conditions: TAF3, GST-tagged; arrays performed twice, n of 4
Summary of the method: as §1

PHF13 = conditions: PHF13, GST-tagged; arrays performed twice, n of 4
Summary of the method: as §1

DIDO1 = conditions: DIDO1, GST-tagged; arrays performed twice, n of 4
Summary of the method: as §1

PHF21A = conditions: PHF21A, GST-tagged; arrays performed twice, n of 4
Summary of the method: as §1

CHD5 (PPCC) = conditions: CHD5 (PPCC), GST-tagged; arrays performed twice, n of 4
Summary of the method: as §1

PHRF1 (RP) = conditions: PHRF1 (RP), GST-tagged; arrays performed twice, n of 4
Summary of the method: as §1

KDM4C (TTP) = conditions: KDM4C (TTP), GST-tagged; arrays performed twice, n of 4
Summary of the method: as §1

PHF2 = conditions: PHF2, GST-tagged; arrays performed twice, n of 4
Summary of the method: as §1

ING1 = conditions: ING1, GST-tagged; arrays performed twice, n of 4
Summary of the method: as §1

BAZ2B = conditions: BAZ2B, GST-tagged; arrays performed twice, n of 4
Summary of the method: as §1

ING4 = conditions: ING4, GST-tagged; arrays performed twice, n of 4
Summary of the method: as §1

PHF23 = conditions: PHF23, GST-tagged; arrays performed twice, n of 4
Summary of the method: as §1

SP140L = conditions: SP140L, GST-tagged; arrays performed twice, n of 4
Summary of the method: as §1

ING2 = conditions: ING2, GST-tagged; arrays performed twice, n of 4
Summary of the method: as §1

ING3 = conditions: ING3, GST-tagged; arrays performed twice, n of 4
Summary of the method: as §1

CHD4 (PPCC) = conditions: CHD4 (PPCC), GST-tagged; arrays performed twice, n of 4
Summary of the method: as §1

BPTF (PB) = conditions: BPTF (PB), GST-tagged; arrays performed twice, n of 4
Summary of the method: as §1

MLL5 = conditions: MLL5, GST-tagged; arrays performed twice, n of 4
Summary of the method: as §1

KDM5A (3) = conditions: KDM5A (3), GST-tagged; arrays performed twice, n of 4
Summary of the method: as §1

AIRE (PP) = conditions: AIRE (PP), GST-tagged; arrays performed twice, n of 4
Summary of the method: as §1

ING5 = conditions: ING5, GST-tagged; arrays performed twice, n of 4
Summary of the method: as §1

H4K12ac + KQ5,8,16,20: H4 1-23 (SGRGQGGQGLGK(Ac)GGAQRHRQVLR; UniProt P62805 2-24, looked up, variant K5Q K8Q K16Q K20Q)
Array Heatmap value (peptide array binding signal) (KDM7A): 0.3252 | Array Heatmap value (peptide array binding signal) (KDM5B (3)): 0.4684 | Array Heatmap value (peptide array binding signal) (KDM5A (1)): 0.4416 | Array Heatmap value (peptide array binding signal) (CHD5 (PCC)): 0.8241 | Array Heatmap value (peptide array binding signal) (DPF2 (PPC2W2)): 0.6849 | Array Heatmap value (peptide array binding signal) (MORC3 (CW)): 0.3596 | Array Heatmap value (peptide array binding signal) (RAG2): 0.2487 | Array Heatmap value (peptide array binding signal) (PHF8): 0.3437 | Array Heatmap value (peptide array binding signal) (TRIM66 (PB)): 0.6047 | Array Heatmap value (peptide array binding signal) (KDM5B (1)): 0.6598 | Array Heatmap value (peptide array binding signal) (TAF3): 0.2598 | Array Heatmap value (peptide array binding signal) (PHF13): 0.611 | Array Heatmap value (peptide array binding signal) (DIDO1): 0.7417 | Array Heatmap value (peptide array binding signal) (PHF21A): 0.4355 | Array Heatmap value (peptide array binding signal) (CHD5 (PPCC)): 0.5319 | Array Heatmap value (peptide array binding signal) (PHRF1 (RP)): 0.4941 | Array Heatmap value (peptide array binding signal) (KDM4C (TTP)): 0.445 | Array Heatmap value (peptide array binding signal) (PHF2): 0.578 | Array Heatmap value (peptide array binding signal) (ING1): 0.553 | Array Heatmap value (peptide array binding signal) (BAZ2B): 0.4631 | Array Heatmap value (peptide array binding signal) (ING4): 0.4387 | Array Heatmap value (peptide array binding signal) (PHF23): 0.5714 | Array Heatmap value (peptide array binding signal) (SP140L): 0.3381 | Array Heatmap value (peptide array binding signal) (ING2): 0.6036 | Array Heatmap value (peptide array binding signal) (ING3): 0.4727 | Array Heatmap value (peptide array binding signal) (CHD4 (PPCC)): 0.5868 | Array Heatmap value (peptide array binding signal) (BPTF (PB)): 0.3429 | Array Heatmap value (peptide array binding signal) (MLL5): 0.5826 | Array Heatmap value (peptide array binding signal) (KDM5A (3)): 0.4384 | Array Heatmap value (peptide array binding signal) (AIRE (PP)): 0.4232 | Array Heatmap value (peptide array binding signal) (ING5): 0.347
